# Laboratory results published in ChEMBL document CHEMBL2396621, “Design, synthesis and biological evaluation of 2-mercapto-3-phenethylquinazoline bearing anilide fragments as potential antitumor agents: molecular docking study” (2013).
# Columns and labels:
# Type in all cases: functional
# OVCAR-8 = assay: Cytotoxicity against human OVCAR8 cells assessed as growth inhibition at 10 uM after 48 hrs by coulter counter analysis; settings: OVCAR-8, 48 h, read-out: GI
# Malme-3M = assay: Cytotoxicity against human MALME-3M cells assessed as growth inhibition at 10 uM after 48 hrs by coulter counter analysis; settings: read-out: GI
# Hs-578T = assay: Cytotoxicity against human Hs578T cells assessed as growth inhibition at 10 uM after 48 hrs by coulter counter analysis; settings: read-out: GI
# OVCAR-4 = assay: Cytotoxicity against human OVCAR4 cells assessed as growth inhibition at 10 uM after 48 hrs by coulter counter analysis; settings: OVCAR-4, 48 h, read-out: GI
# RXF 393 = assay: Cytotoxicity against human RXF393 cells assessed as growth inhibition at 10 uM after 48 hrs by coulter counter analysis; settings: RXF 393, 48 h, read-out: GI
# IGROV-1 = assay: Cytotoxicity against human IGROV1 cells assessed as growth inhibition at 10 uM after 48 hrs by coulter counter analysis; settings: IGROV-1, 48 h, read-out: GI
# SK-OV-3 = assay: Cytotoxicity against human SKOV3 cells assessed as growth inhibition at 10 uM after 48 hrs by coulter counter analysis; settings: SK-OV-3, 48 h, read-out: GI
# SF-539 = assay: Cytotoxicity against human SF539 cells assessed as growth inhibition at 10 uM after 48 hrs by coulter counter analysis; settings: SF-539, 48 h, read-out: GI
# NCI-H23 = assay: Cytotoxicity against human NCI-H23 cells assessed as growth inhibition at 10 uM after 48 hrs by coulter counter analysis; settings: NCI-H23, 48 h, read-out: GI
# NCI-H322M = assay: Cytotoxicity against human NCI-H322M cells assessed as growth inhibition at 10 uM after 48 hrs by coulter counter analysis; settings: read-out: GI
# MDA-MB-435 = assay: Cytotoxicity against human MDA-MB-435 cells assessed as growth inhibition at 10 uM after 48 hrs by coulter counter analysis; settings: MDA-MB-435, 48 h, read-out: GI
# UACC-62 = assay: Cytotoxicity against human UACC62 cells assessed as growth inhibition at 10 uM after 48 hrs by coulter counter analysis; settings: UACC-62, 48 h, read-out: GI
# HOP-62 = assay: Cytotoxicity against human HOP62 cells assessed as growth inhibition at 10 uM after 48 hrs by coulter counter analysis; settings: HOP-62, 48 h, read-out: GI
# LOX IMVI = assay: Cytotoxicity against human LOXIMVI cells assessed as growth inhibition at 10 uM after 48 hrs by coulter counter analysis; settings: read-out: GI
# [1] = Cytotoxicity against human EKVX cells assessed as growth inhibition at 10 uM after 48 hrs by coulter counter analysis; settings: read-out: GI
# PC-3 = assay: Cytotoxicity against human PC3 cells assessed as growth inhibition at 10 uM after 48 hrs by coulter counter analysis; settings: PC-3, 48 h, read-out: GI
# KM12 = assay: Cytotoxicity against human KM12 cells assessed as growth inhibition at 10 uM after 48 hrs by coulter counter analysis; settings: KM12, 48 h, read-out: GI
# OVCAR-5 = assay: Cytotoxicity against human OVCAR5 cells assessed as growth inhibition at 10 uM after 48 hrs by coulter counter analysis; settings: OVCAR-5, 48 h, read-out: GI
# NCI-H226 = assay: Cytotoxicity against human NCI-H226 cells assessed as growth inhibition at 10 uM after 48 hrs by coulter counter analysis; settings: NCI-H226, 48 h, read-out: GI
# T47D = assay: Cytotoxicity against human T47D cells assessed as growth inhibition at 10 uM after 48 hrs by coulter counter analysis; settings: read-out: GI
# BT-549 = assay: Cytotoxicity against human BT549 cells assessed as growth inhibition at 10 uM after 48 hrs by coulter counter analysis; settings: BT-549, 48 h, read-out: GI
# UO-31 = assay: Cytotoxicity against human UO31 cells assessed as growth inhibition at 10 uM after 48 hrs by coulter counter analysis; settings: UO-31, 48 h, read-out: GI
# NCI-H460 = assay: Cytotoxicity against human NCI-H460 cells assessed as growth inhibition at 10 uM after 48 hrs by coulter counter analysis; settings: NCI-H460, 48 h, read-out: GI
# DU-145 = assay: Cytotoxicity against human DU145 cells assessed as growth inhibition at 10 uM after 48 hrs by coulter counter analysis; settings: DU-145, 48 h, read-out: GI
# SNB-19 = assay: Cytotoxicity against human SNB19 cells assessed as growth inhibition at 10 uM after 48 hrs by coulter counter analysis; settings: SNB-19, 48 h, read-out: GI
# A549 = assay: Cytotoxicity against human A549 cells assessed as growth inhibition at 10 uM after 48 hrs by coulter counter analysis; settings: A549, 48 h, read-out: GI
# UACC-257 = assay: Cytotoxicity against human UACC257 cells assessed as growth inhibition at 10 uM after 48 hrs by coulter counter analysis; settings: UACC-257, 48 h, read-out: GI
# A498 = assay: Cytotoxicity against human A498 cells assessed as growth inhibition at 10 uM after 48 hrs by coulter counter analysis; settings: A498, 48 h, read-out: GI
# MDA-MB-468 = assay: Cytotoxicity against human MDA-MB-468 cells assessed as growth inhibition at 10 uM after 48 hrs by coulter counter analysis; settings: MDA-MB-468, 48 h, read-out: GI
# SK-MEL-5 = assay: Cytotoxicity against human SK-MEL-5 cells assessed as growth inhibition at 10 uM after 48 hrs by coulter counter analysis; settings: SK-MEL-5, 48 h, read-out: GI
# HCT-116 = assay: Cytotoxicity against human HCT116 cells assessed as growth inhibition at 10 uM after 48 hrs by coulter counter analysis; settings: HCT-116, 48 h, read-out: GI
# SK-MEL-28 = assay: Cytotoxicity against human SK-MEL-28 cells assessed as growth inhibition at 10 uM after 48 hrs by coulter counter analysis; settings: SK-MEL-28, 48 h, read-out: GI
# M14 = assay: Cytotoxicity against human M14 cells assessed as growth inhibition at 10 uM after 48 hrs by coulter counter analysis; settings: M14, 48 h, read-out: GI
# SNB-75 = assay: Cytotoxicity against human SNB75 cells assessed as growth inhibition at 10 uM after 48 hrs by coulter counter analysis; settings: SNB-75, 48 h, read-out: GI
# COLO 205 = assay: Cytotoxicity against human COLO205 cells assessed as growth inhibition at 10 uM after 48 hrs by coulter counter analysis; settings: COLO 205, 48 h, read-out: GI
# SN12C = assay: Cytotoxicity against human SN12C cells assessed as growth inhibition at 10 uM after 48 hrs by coulter counter analysis; settings: read-out: GI
# 786-0 = assay: Cytotoxicity against human 786-0 cells assessed as growth inhibition at 10 uM after 48 hrs by coulter counter analysis; settings: 786-0, 48 h, read-out: GI
SMILES,inhibition of growth at 10 µM (OVCAR-8) [%],inhibition of growth at 10 µM (Malme-3M) [%],inhibition of growth at 10 µM (Hs-578T) [%],inhibition of growth at 10 µM (OVCAR-4) [%],inhibition of growth at 10 µM (RXF 393) [%],inhibition of growth at 10 µM (IGROV-1) [%],inhibition of growth at 10 µM (SK-OV-3) [%],inhibition of growth at 10 µM (SF-539) [%],inhibition of growth at 10 µM (NCI-H23) [%],inhibition of growth at 10 µM (NCI-H322M) [%],inhibition of growth at 10 µM (MDA-MB-435) [%],inhibition of growth at 10 µM (UACC-62) [%],inhibition of growth at 10 µM (HOP-62) [%],inhibition of growth at 10 µM (LOX IMVI) [%],inhibition of growth at 10 µM [1] [%],inhibition of growth at 10 µM (PC-3) [%],inhibition of growth at 10 µM (KM12) [%],inhibition of growth at 10 µM (OVCAR-5) [%],inhibition of growth at 10 µM (NCI-H226) [%],inhibition of growth at 10 µM (T47D) [%],other results
O=C(CSc1nc2ccccc2c(=O)n1CCc1ccccc1)Nc1ccc(F)cc1,< 10,11,16,< 10,13,16,25,< 10,12,17,< 10,25,< 10,18,24,16,< 10,< 10,< 10,25,inhibition of growth at 10 µM (BT-549): 10%; inhibition of growth at 10 µM (UO-31): 31%; inhibition of growth at 10 µM (NCI-H460): < 10%; inhibition of growth at 10 µM (DU-145): < 10%; inhibition of growth at 10 µM (SNB-19): < 10%; inhibition of growth at 10 µM (A549): 23%; inhibition of growth at 10 µM (UACC-257): < 10%; inhibition of growth at 10 µM (A498): 10%; inhibition of growth at 10 µM (MDA-MB-468): 23%; inhibition of growth at 10 µM (SK-MEL-5): 16%; inhibition of growth at 10 µM (HCT-116): 19%; inhibition of growth at 10 µM (SK-MEL-28): < 10%; inhibition of growth at 10 µM (M14): 18%; inhibition of growth at 10 µM (SNB-75): < 10%; inhibition of growth at 10 µM (COLO 205): < 10%; inhibition of growth at 10 µM (SN12C): 19%; inhibition of growth at 10 µM (786-0): < 10%
CCOc1ccc(NC(=O)CSc2nc3ccccc3c(=O)n2CCc2ccccc2)cc1,29,37,< 10,< 10,13,21,< 10,< 10,< 10,23,14,< 10,36,11,19,< 10,< 10,< 10,31,15,inhibition of growth at 10 µM (BT-549): < 10%; inhibition of growth at 10 µM (UO-31): 26%; inhibition of growth at 10 µM (NCI-H460): 11%; inhibition of growth at 10 µM (DU-145): < 10%; inhibition of growth at 10 µM (SNB-19): < 10%; inhibition of growth at 10 µM (A549): 13%; inhibition of growth at 10 µM (UACC-257): < 10%; inhibition of growth at 10 µM (A498): < 10%; inhibition of growth at 10 µM (MDA-MB-468): 10%; inhibition of growth at 10 µM (SK-MEL-5): < 10%; inhibition of growth at 10 µM (HCT-116): 16%; inhibition of growth at 10 µM (SK-MEL-28): < 10%; inhibition of growth at 10 µM (M14): 10%; inhibition of growth at 10 µM (SNB-75): 21%; inhibition of growth at 10 µM (COLO 205): < 10%; inhibition of growth at 10 µM (SN12C): < 10%; inhibition of growth at 10 µM (786-0): < 10%
